Measured values as given in paper PMC12410758, “A novel sulfamoylphenyl-dihydro-thiadiazole derivative as a dual EGFR and carbonic anhydrase inhibitor for cancer therapy” (PLOS One, 2025).
Read-outs that look alike come from different tables or passages of the source.

Columns and labels:
EGFR [1] = biological target: T1, EGFR (Homo sapiens, UniProt P00533); assay: In vitro EGFR inhibition (EGFR Kinase Assay Kit, BPS Bioscience); assay type: biochemical; details: mean ± SEM of three independent experiments
T1 construct: purchased BPS Bioscience, USA
T1 sequence (P00533 25-1210): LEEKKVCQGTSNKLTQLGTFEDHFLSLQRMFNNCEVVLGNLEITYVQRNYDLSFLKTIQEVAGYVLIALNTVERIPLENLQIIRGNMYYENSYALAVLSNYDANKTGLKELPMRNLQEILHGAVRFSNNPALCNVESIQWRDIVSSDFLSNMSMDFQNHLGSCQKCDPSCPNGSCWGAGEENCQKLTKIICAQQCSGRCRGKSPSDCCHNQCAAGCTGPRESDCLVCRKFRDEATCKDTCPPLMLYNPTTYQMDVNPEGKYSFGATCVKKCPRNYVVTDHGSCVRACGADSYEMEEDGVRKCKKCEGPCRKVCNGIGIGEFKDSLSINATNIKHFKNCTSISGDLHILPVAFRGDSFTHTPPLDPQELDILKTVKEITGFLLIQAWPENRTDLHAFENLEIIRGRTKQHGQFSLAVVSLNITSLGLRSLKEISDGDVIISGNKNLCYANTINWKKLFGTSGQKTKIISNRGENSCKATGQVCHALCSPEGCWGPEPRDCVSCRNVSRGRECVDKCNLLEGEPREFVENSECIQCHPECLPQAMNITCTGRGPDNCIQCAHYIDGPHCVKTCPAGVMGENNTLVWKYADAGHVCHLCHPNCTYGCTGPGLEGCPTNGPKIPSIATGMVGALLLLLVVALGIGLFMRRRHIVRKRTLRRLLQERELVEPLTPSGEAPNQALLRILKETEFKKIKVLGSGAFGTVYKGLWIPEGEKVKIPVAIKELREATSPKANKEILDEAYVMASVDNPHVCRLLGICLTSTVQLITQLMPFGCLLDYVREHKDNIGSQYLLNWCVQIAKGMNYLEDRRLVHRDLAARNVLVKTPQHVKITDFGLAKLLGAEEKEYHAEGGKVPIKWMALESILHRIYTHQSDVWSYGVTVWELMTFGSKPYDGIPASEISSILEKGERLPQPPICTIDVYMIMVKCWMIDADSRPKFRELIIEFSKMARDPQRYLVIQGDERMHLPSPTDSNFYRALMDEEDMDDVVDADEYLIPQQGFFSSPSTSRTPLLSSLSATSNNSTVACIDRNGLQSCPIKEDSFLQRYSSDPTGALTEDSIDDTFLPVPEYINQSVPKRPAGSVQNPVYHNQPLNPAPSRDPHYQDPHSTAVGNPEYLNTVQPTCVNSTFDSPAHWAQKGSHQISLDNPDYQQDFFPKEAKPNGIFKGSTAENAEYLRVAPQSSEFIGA
Description: (§1) • The in vitro inhibitory activity of the tested compounds against EGFR was accomplished using EGFR
(§2) Kinase Assay Kit (BPS Bioscience, USA) at different dilutions of 1000, 300, 100, 30, 10, 3, 1, and 0.3 nM.
In vitro carbonic anhydrase inhibition

hCA_IX = biological target: T2, hCA_IX (Homo sapiens, UniProt Q16790); assay: In vitro carbonic anhydrase (IX) inhibition (assay kit, BPS Bioscience); assay type: biochemical; details: mean ± SEM of three independent experiments
T2 construct: purchased BPS Bioscience, USA
Description: as §1, §2
In vitro carbonic anhydrase inhibition

hCA_XII = biological target: T3, hCA_XII (Homo sapiens, UniProt O43570); assay: In vitro carbonic anhydrase (XII) inhibition (assay kit, BPS Bioscience); assay type: biochemical; details: mean ± SEM of three independent experiments
T3 construct: purchased BPS Bioscience, USA
T3 sequence (O43570 25-354): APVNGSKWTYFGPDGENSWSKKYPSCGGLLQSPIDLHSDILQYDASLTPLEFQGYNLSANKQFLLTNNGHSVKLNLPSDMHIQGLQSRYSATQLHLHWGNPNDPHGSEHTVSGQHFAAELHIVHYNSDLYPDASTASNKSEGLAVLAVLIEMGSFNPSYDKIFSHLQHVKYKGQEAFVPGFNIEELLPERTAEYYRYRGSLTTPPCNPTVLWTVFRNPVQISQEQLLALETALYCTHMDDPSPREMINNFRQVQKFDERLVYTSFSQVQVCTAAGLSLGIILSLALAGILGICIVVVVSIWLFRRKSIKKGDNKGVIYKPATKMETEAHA

[2] = MTT safety assay, non-cancerous Vero cells; assay type: cell-based; details: African green monkey, mean ± SEM of three independent experiments, read-out: In vitro Cytotoxicity IC50 (µM) Vero
Description: The cell line (Vero) was obtained from ATCC via Holding company for biological products and vaccines
(VACSERA) , Cairo, Egypt.
The different cell line mentioned above were used to determine the inhibitory effects of compounds on c ell growth using the MTT assay. This colorimetric assay is based on the conversion of the yellow tetrazolium
bromide (MTT) to a purple formazan derivative by mitochondrial succinate dehydrogenase in viable cells.
Antibiotics added were 100
units/ml penicillin and 100µg/ml streptomycin at 37 C in a 5% Co2 incubator. The cellswere seedesin a 96-
well plate at a density of 1.0x10^4 cells/well.at 37 C for 48 h under 5% Co2. After incubation the cells were treated with different concentration of compounds and incubated for 24 h. After 24 h of drug treatment, 20 µl
of MTT solution at 5mg/ml was added and incubated for 4 h. Dimethyl sulfoxide(DMSO) in volume of 100µl
is added into each well to dissolve the purple formazan formed. The colorimetric assay is measured and
The relative cell viability in percentage
was calculated as (A570 of treated samples/A570 of untreated sample) X 100.

MDA-MB-231 cells [3] = assay: Cell cycle analysis, PI flow cytometry; assay type: cell-based; details: 16.13 µM, 48 h
MCF-7 cells = assay: MTT cytotoxicity, MCF-7; details: for Average of Relative viability of cells (%) MCF-7: 24 h; for IC50: read-out: In vitro Cytotoxicity IC50 (µM) MCF-7, mean ± SEM of three independent experiments
Description: (§3) The cell lines mentioned above were used to determine the inhibitory effects of compounds on cell growth
(§4) using the MTT assay. This colorimetric assay is based on the conversion of the yellow tetrazolium bromide (MTT) to a purple formazan derivative by mitochondrial succinate dehydrogenase in viable cells. Cell lines
(§5) Antibiotics added were 100 units/ml penicillin and 100µg/ml streptomycin at 37 C in a 5% Co2 incubator. The cell lines were seedesin a 96-well
(§6) plate at a density of 1.0x10^4 cells/well. at 37 C for 48 h under 5% Co2. After incubation the cells were treated
(§7) with different concentration of compounds and incubated for 24 h. After 24 h of drug treatment, 20 µl of MTT solution at 5mg/ml was added and incubated for 4 h. Dimethyl sulfoxide (DMSO) in volume of 100 µl is
(§8) added into each well to dissolve the purple formazan formed. The colorimetric assay is measured and recorded
(§9) The relative cell viability in percentage was
(§10) calculated as (A570 of treated samples/A570 of untreated sample) X 100.

MDA-MB-231 cells [4] = assay: MTT cytotoxicity, MDA-MB-231; details: for Average of Relative viability of cells (%) MDA-231: 24 h; for IC50: read-out: In vitro Cytotoxicity IC50 (µM) MDA-231, mean ± SEM of three independent experiments
Description: as §3, §4, §5, §6, §7, §8, §9, §10

MDA-MB-231 cells [5] = assay: qRT-PCR of apoptotic markers in MDA-MB-231 cells; details: 16.13 µM, 72 h, control set to 1, mean ± SEM
Description: Quantitative Reverse Transcription-Poly¬merase Chain Reaction (qRT-PCR) Analysis
Cells were seeded in T-25 cm2 tissue culture flasks 24h before treatment with DMSO vehicle (0.01%) or
Total RNA was extracted, reverse transcribed, and assayed
for BAX, Bcl-2, caspases-8, and caspases-9 genes expression by quantitative RT-PCR. ß-actin serves as the
housekeeping gene. The quantity of BAX, Bcl-2, Caspase-8 and Caspase-9 mRNA in control and compound
Total RNA from vehicle-treated control
(0.01% DMSO) and 14-treated MDA-231 cells were extracted as-per the manufacturer instructi¬ons (RNeasy
mini kit, Qiagen, Germany). After RNA extraction, cDNA was prepared using the Revert Aid First Strand
cDNA Synthesis kit (Thermo Scientific, USA). Amplification of target cDNA for apoptosis markers and ß-
actin [as a normalization (housekeeping) gene] was done using one-step RT-PCR SYBR® Green kit Master Mix (Bio‐Rad Laboratories, USA) on Rotor-Gene Q real-time PCR thermal cycler instrument. cDNA (2 μl
aliquots) was mixed with 1 μl of forward primer, 1 μl reverse primer (Table below), 10 μl master mixture,
and the reaction volume was completed to 20 μl with nuclease-free water. All experiments were performed in

MDA-MB-231 cells [6] = assay: Apoptosis analysis, Annexin V-FITC/PI flow cytometry
Description: Apoptosis detection was carried out using Annexin V fluorescein isothiocyanate (V-FITC)/PI kit according to the reported procedures. MDA-MB-231cells cells were seeded and incubated for 24 h, then treated with
The cells were then collected, washed 3 times with PBS, fixed with ice-
cold absolute ethanol (70%) and stained with Annexin-V-FITC/propidium iodide (PI) using a double staining
kit for 20 min in the dark. Epics XL-MCL™ Flow Cytometer was used to evaluate the apoptosis.

EGFR [7] = biological target: T1, EGFR; set-up: method as in PMID 35896557; details: read-out: EGFR inhibition IC50; cited from earlier work
T-47D = system: T-47D; set-up: method as in PMID 35896557; details: read-out: anti-proliferative IC50, T-47D; cited from earlier work
MDA-MB-231 = system: MDA-MB-231; set-up: method as in PMID 35896557; details: read-out: anti-proliferative IC50, MDA-MB-231; cited from earlier work
MDA-MB-231 cells [8] = system: MDA-MB-231 cells; set-up: method as in PMID 35896557; details: cited from earlier work

Structure (SMILES): CCOC(=O)c1nn(-c2ccc(S(N)(=O)=O)cc2)/c(=N/N=C(\C)c2ccc(NC(C)=O)cc2)s1 [Compound 14, Ethyl (Z)-5-(((E)-1-(4-acetamidophenyl)ethylidene)hydrazineylidene)-4-(4-sulfamoylphenyl)-4,5-dihydro-1,3,4-thiadiazole-2-carboxylate]
- IC50 (EGFR [1]): 10.1 ± 0.29 nM
- IC50 (hCA_IX): 79 ± 0.3 nM
- IC50 (hCA_XII): 58 ± 0.3 nM
- IC50 at 24 h [2]: 148.3 ± 1.22 µM
- Cell cycle distribution (%) % G2/M (MDA-MB-231 cells [3]; untreated 10.59): 7.94%
- Cell cycle distribution (%) %Sub-G1 (MDA-MB-231 cells [3]; untreated 19.48): 19.18%
- Cell cycle distribution (%) %S (MDA-MB-231 cells [3]; untreated 24.95): 23.78%
- Cell cycle distribution (%) %G1 (MDA-MB-231 cells [3]; untreated 44.98): 49.10%
- Average of Relative viability of cells (%) MCF-7 (MCF-7 cells; 1.56 µM): 100%
- Average of Relative viability of cells (%) MCF-7 (MCF-7 cells; 3.125 µM): 90.3%
- Average of Relative viability of cells (%) MCF-7 (MCF-7 cells; 6.25 µM): 71.7%
- Average of Relative viability of cells (%) MCF-7 (MCF-7 cells; 12.5 µM): 57.6%
- Average of Relative viability of cells (%) MCF-7 (MCF-7 cells; 25 µM): 46.5%
- Average of Relative viability of cells (%) MCF-7 (MCF-7 cells; 50 µM): 35.1%
- Average of Relative viability of cells (%) MCF-7 (MCF-7 cells; 100 µM): 24.4%
- IC50 (MCF-7 cells): 22.6 ± 1.5 µM
- Average of Relative viability of cells (%) MDA-231 (MDA-MB-231 cells [4]; 1.56 µM): 100%
- Average of Relative viability of cells (%) MDA-231 (MDA-MB-231 cells [4]; 3.125 µM): 86.3%
- Average of Relative viability of cells (%) MDA-231 (MDA-MB-231 cells [4]; 6.25 µM): 69.9%
- Average of Relative viability of cells (%) MDA-231 (MDA-MB-231 cells [4]; 12.5 µM): 51.0%
- Average of Relative viability of cells (%) MDA-231 (MDA-MB-231 cells [4]; 25 µM): 38.6%
- Average of Relative viability of cells (%) MDA-231 (MDA-MB-231 cells [4]; 50 µM): 26.1%
- Average of Relative viability of cells (%) MDA-231 (MDA-MB-231 cells [4]; 100 µM): 18.5%
- IC50 (MDA-MB-231 cells [4]): 16.1 ± 1.2 µM
- Gene expression (Fold Change) BAX (MDA-MB-231 cells [5]): 3.06 ± 0.18 Fold Change
- Gene expression (Fold Change) BAX/Bcl-2 ratio (MDA-MB-231 cells [5]): 5.56 ± 0.69 Fold Change
- Gene expression (Fold Change) Bcl-2 (MDA-MB-231 cells [5]): 0.55 ± 0.05 Fold Change
- Gene expression (Fold Change) Caspases-8 (MDA-MB-231 cells [5]): 2.37 ± 0.07 Fold Change
- Gene expression (Fold Change) Caspases-9 (MDA-MB-231 cells [5]): 2.26 ± 0.15 Fold Change
- Apoptosis Late (MDA-MB-231 cells [6]; 16.13 µM, 48 h, MDA-MB-231, untreated 0.32): 58.27%
- Necrosis (MDA-MB-231 cells [6]; 16.13 µM, 48 h, MDA-MB-231, untreated 0.45): 0.03%
- Apoptosis Early (MDA-MB-231 cells [6]; 16.13 µM, 48 h, MDA-MB-231, untreated 3.84): 22.50%
- viability at 16.13 µM (MDA-MB-231 cells [6]; Homo sapiens, MDA-MB-231, 48 h, read-out: Viable cells): 19.2%

Structure (SMILES): COc1ccc(/C=C2/SC(N3N=C(c4cccc5ccccc45)CC3c3ccc(F)cc3)=NC2=O)cc1O (centres unmarked) [compound III]
- IC50 (EGFR [7]): 0.267 µM
- IC50 (T-47D): 0.62 µM
- IC50 (MDA-MB-231): 3.14 µM
- apoptosis induction (MDA-MB-231 cells [8]): induced apoptosis
- cell cycle arrest phase (MDA-MB-231 cells [8]): G2/M phase

Structure (SMILES): CC(=O)Nc1nnc(S(N)(=O)=O)s1 [Acetazolamide, reference compound]
- IC50 at 24 h [2]: 77.57 ± 0.57 µM
- IC50 (MCF-7 cells): 7.26 ± 0.3 µM
- IC50 (MDA-MB-231 cells [4]): 7.64 ± 0.4 µM
